# Measurements taken from patent publication US20210254000A1, “PROCESS FOR PRODUCING A T CELL COMPOSITION” (Juno Therapeutics, Inc., priority 2017, published 2021).
# Key:
# [1] = tested on: engineered CD8+ and CD4+ T cells; assay: T cell expansion of anti-CD19 CAR-transduced CD4+ and CD8+ T cells incubated with mTOR kinase inhibitor; assay type: cell-based; conditions: human
# Procedure: Separate compositions of CD4+ and CD8+ cells were isolated from human leukapheresis samples by immunoaffinity-based enrichment and cryofrozen. The CD4+ and CD8+ cells of the compositions were subsequently thawed and activated by separately culturing the cells under stimulating conditions in the presence of anti-CD3/anti-CD28 magnetic beads and recombinant IL-2, IL-7 and/or IL-15 for approximately 20 hours. Cells were then transduced with a viral vector encoding an anti-CD19 chimeric antigen receptor (CAR). After transduction, the CD4+ and CD8+ cells were separately incubated in the presence of an mTOR kinase inhibitor, either Compound 155, Compound 63, or Compound 246, at various concentrations. For controls, cells were incubated with media only, DMSO vehicle, or with 200 nM PI-103. Incubation was carried out at 37° C. for approximately 8 days post-thaw with one media change, at which point the compounds were re-added to the culture media at the same concentration.
# The percent of CD8+ and CD4+ T cells at the end of the process as compared to the amount of cells seeded for culture following the transduction is shown in FIG. 2. The cutoff for selecting a tolerated dose was set at 70% of the mean values of the media and DMSO controls.
# CD8+ CAR-T cells = assay: Glycolytic metabolism (ECAR, Seahorse) of CD8+ CAR-T cells expanded with inhibitor; assay type: cell-based, human; conditions: CD8+ CAR-T cells expanded with 1 μM Compound 63; 3 donors
# Procedure: Separate compositions of CD4+ and CD8+ cells were isolated from three human donors, activated and transduced with a viral vector encoding an anti-CD19 CAR substantially as described in Example 2. After transduction, the CD4+ and CD8+ T cells derived from each donor were separately incubated for 8 days in the presence of a mTOR kinase inhibitor to expand T cells substantially as described in Example 2, except in the presence of 200 nM PI-103, 1 μM Compound 63, or with DMSO vehicle or media only controls. CD4+ and CD8+ T cells from each donor were then separately harvested, formulated, and cryofrozen. […] Functional activities of the generated anti-CD19 CAR-T cell compositions were assessed.
# Changes in cellular glycolytic metabolism in response to T cell receptor (TCR) stimulation were measured in CD8+ CAR-T cells from the generated anti-CD19 CAR-T cell composition prior to combining with CD4+ T cells. Glycolytic metabolism was assessed by measuring the extracellular acidification rate (ECAR) in CD8+ CAR-T cells in real time with an extracellular flux bioanalyzer (Seahorse Bioanalyzer, Agilent Technologies). […] Area under the curve (AUC) for the ECAR rates (mpH/min) from 0 to 76 minutes of the assay and maximal ECAR glycolytic burst ratio relative to media controls (n=3 donors) were determined.
compound,measurement,setting,value
"CC(C)c1ccccc1-n1c(=O)[nH]c2c(C(N)=O)nc(-c3cccc(O)c3)nc21 [Compound 63, 2-(3-Hydroxyphenyl)-9-(2-isopropylphenyl)-8-oxo-8,9-dihydro-7H-purine-6-carboxamide]",highest tolerated dose resulting in similar CD8 and CD4 T cell expansion as vehicle control,[1],1 µM
same,"glycolytic burst upon TCR stimulation (ECAR AUC, ECAR ratio) relative to media control",CD8+ CAR-T cells,trend towards enhanced glycolytic burst
